Laboratory results published in US10792236B2, “Dentifrice comprising zinc-amino acid complex” (Colgate-Palmolive Company, priority 2012, dated 2020).
“And” between values parts separate entries of the source, which are not always exact repeats. Equal values may be shown once.

Key:
[1] = Dilution experiment of ZLC neat solution: visible flocculation/precipitation at 37° C.; assay type: physicochemical
Protocol: Various dilutions of ZLC are prepared to evaluate its efficiency in producing visible precipitates and/or flocculation, which can be delivered in situ onto an oral surface or into a dental opening, such as open tubules.
(§1) A neat solution of ZLC is prepared by 1), reacting 0.5 mole of ZnO powder with 1 mole of lysine HCl in 1 liter of water at room temperature for about 2 hours, and 2) collecting the supernatant through centrifugation followed by filtration using a 0.45 micron membrane. The neat solution has a zinc concentration of 2.39% by weight, and a pH of about 7.03.
(§2) Dilution experiment is conducted by mixing the neat solution with deionized water. The neat solution is diluted by 2×, 4×, 6×, 7×, 8×, 10×, 12×, 16×, 20×, 24×, 28×, and 32×, corresponding to initial zinc concentrations of 1.20%, 0.598%, 0.398%, 0.341%, 0.299%, 0.239%, 0.199%, 0.149%, 0.120%, 0.0996%, 0.0854%, 0.0747%, by weight, respectively. The diluted samples are kept at 37° C., and the rates at which flocculation/precipitation occurred are monitored.

[2] = Deposition/occlusion assay on dentine slices, confocal imaging; set-up: species or system human
Protocol: The deposition/occlusion assay is conducted using human dentine slices and the neat solution of Example 5. The dentine slices were prepared by cutting human tooth into thin dentine sections of about 800 microns in thickness, choosing a test side, sanding said test side using a sandpaper of about 600 grit, polishing said test side using a Buehler polishing cloth and 5 micron Buehler aluminum oxide, acid-etching said dentine section in 1% (by weight) citric acid solution for about 20 seconds, sonicating said dentine section for 10 minutes, and storing said dentine section in phosphate buffered saline (PBS, pH 7.4).
For treatment, the neat solution is diluted 16-fold with water, yielding a treatment solution with initial zinc concentration of about 0.149% by weight. The dentine section is immersed in the treatment solution for 1 hour at 37° C. The treated dentine section is then removed from the treatment solution, and rinsed 4 times, each time with 1 mL of PBS. The dentine section is then dried using a paper-based tissue and examined under confocal microscope in both XYZ and XYZ modes. Subsequent treatments are conducted in the same manner.
Dentine sections, as prepared in Example 6, are repeatedly treated with ZLC dilutions with initial zinc concentration of 0.0747% by weight. […] The dentine section is examined under the confocal microscope after each treatment.

[3] = pH of ZLC neat solution and final diluted samples; assay type: physicochemical; conditions: for final pH value: diluted sample
Protocol: as §1, §2
pH values of final diluted samples are suitable for oral care applications. […] These pH values were well within the range of 5.5 to 10, which defines the suitable range for oral care formulations.

## [Zn(C6H14N2O2)2Cl]^+ Cl^− [ZLC]
[1]; after a total of 19 hours
  samples with flocculation and/or precipitation: all samples except the one with initial zinc concentration of 1.20%
[1]; two hours after mixing
  initial zinc concentration of additional sample showing flocculation: 0.299%
[1]; within 30 minutes from mixing with water
  initial zinc concentrations of dilutions with visible flocculation: 0.149% and 0.199%
[2]; 4 consecutive treatments, initial zinc 0.0747%, 10 minutes at 37° C. each
  deposition/occlusion on dentine surface: significant surface deposition
[2]; 12 consecutive treatments, initial zinc 0.0747%, 10 minutes at 37° C. each
  deposition/occlusion on dentine surface: complete surface coverage
[2]; 32-fold dilution, initial zinc 0.0747%, 10 minutes at 37° C.
  visible precipitation during treatment: no precipitation is observed by naked eyes
[2]; after second treatment, 16-fold dilution, zinc about 0.149%
  thickness of surface deposits: ≥ 10 microns
[2]; after third treatment, 16-fold dilution, zinc about 0.149%
  thickness of surface deposits: ≥ 25 microns
[2]; first treatment, neat solution diluted 16-fold, zinc about 0.149%, 1 hour at 37° C.
  deposition/occlusion on dentine surface: noticeable deposition
[2]; second treatment, 16-fold dilution, zinc about 0.149%, 1 hour at 37° C. each
  deposition/occlusion on dentine surface: complete surface coverage, including blocking of substantially all tubule openings
[2]; third treatment, 16-fold dilution, zinc about 0.149%, 1 hour at 37° C. each
  deposition/occlusion on dentine surface: complete surface coverage and complete blocking of tubule openings
[3]; initial zinc concentration 0.0747%
  final pH value: 7.99
[3]; initial zinc concentration 0.0854%
  final pH value: 8.13
[3]; initial zinc concentration 0.0996%
  final pH value: 8.11
[3]; initial zinc concentration 0.120%
  final pH value: 7.97
[3]; initial zinc concentration 0.149%
  final pH value: 7.99
[3]; initial zinc concentration 0.199 wt %
  final pH value: 6.80
[3]; initial zinc concentration 0.239%
  final pH value: 6.70
[3]; neat solution, zinc 2.39% by weight
  pH: about 7.03
